Legend:
Glk1 = biological target: T1, Glk1 (Synechococcus elongatus, UniProt Q31RR6); experiment: PK/LDH-coupled sugar phosphorylation assay, […] nm; assay type: biochemical; details: 10 mM sugar, 2.5 mM ATP, 4 mM MgCl2, 20 mM KCl, Tris-HCl pH 7.8
T1 construct: gene glk
T1 sequence (Q31RR6 1-345): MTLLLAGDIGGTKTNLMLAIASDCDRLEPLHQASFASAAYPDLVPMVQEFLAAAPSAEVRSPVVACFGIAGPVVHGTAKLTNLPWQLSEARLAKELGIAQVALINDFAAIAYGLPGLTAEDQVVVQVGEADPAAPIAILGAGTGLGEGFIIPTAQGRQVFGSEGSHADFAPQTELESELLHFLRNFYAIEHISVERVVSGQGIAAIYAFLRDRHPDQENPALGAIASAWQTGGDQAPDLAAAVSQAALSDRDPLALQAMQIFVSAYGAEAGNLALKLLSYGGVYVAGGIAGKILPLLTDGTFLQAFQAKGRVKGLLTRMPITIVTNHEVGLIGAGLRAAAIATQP

Glk2 = biological target: T2, Glk2 (Synechococcus elongatus, UniProt Q31LC8); experiment: PK/LDH-coupled sugar phosphorylation assay, […] nm; assay type: biochemical; details: 10 mM sugar, 2.5 mM ATP, 4 mM MgCl2, 20 mM KCl, Tris-HCl pH 7.8
T2 construct: gene Synpcc7942_2111
T2 sequence (Q31LC8 1-302): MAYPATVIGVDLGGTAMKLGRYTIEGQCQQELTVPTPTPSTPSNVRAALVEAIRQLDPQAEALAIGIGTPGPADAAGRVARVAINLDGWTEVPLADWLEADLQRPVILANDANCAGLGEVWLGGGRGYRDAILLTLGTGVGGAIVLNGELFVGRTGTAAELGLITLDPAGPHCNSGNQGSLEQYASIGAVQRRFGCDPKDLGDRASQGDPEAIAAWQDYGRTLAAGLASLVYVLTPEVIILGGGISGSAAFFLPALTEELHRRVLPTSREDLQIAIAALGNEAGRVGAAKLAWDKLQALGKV

## OC[C@H]1OC(O)[C@H](O)[C@@H](O)[C@@H]1O (some centres unmarked) [glucose]
Glk1
  PK/LDH-coupled sugar phosphorylation assay, 340 nm: both the two glucokinases showed phosphorylation activities on some other sugars besides glucose
Glk2
  PK/LDH-coupled sugar phosphorylation assay, 340 nm: both the two glucokinases showed phosphorylation activities on some other sugars besides glucose
